The record followed here is ChEMBL document CHEMBL1136905, “Substituted isoxazole analogs of farnesoid X receptor (FXR) agonist GW4064” (Bioorg Med Chem Lett, 2009).

Usually EC50 stands for the concentration needed to bring the measured effect to its halfway point. One may read the clearance as the rate of elimination divided by the concentration. One may read the bioavailability as the share of a dose that reaches the circulation, judged against a reference dose that is usually intravenous.

For series [1], the target named is T1, Bile acid receptor (Homo sapiens) (UniProt Q96RI1).
T1 sequence (whole entry): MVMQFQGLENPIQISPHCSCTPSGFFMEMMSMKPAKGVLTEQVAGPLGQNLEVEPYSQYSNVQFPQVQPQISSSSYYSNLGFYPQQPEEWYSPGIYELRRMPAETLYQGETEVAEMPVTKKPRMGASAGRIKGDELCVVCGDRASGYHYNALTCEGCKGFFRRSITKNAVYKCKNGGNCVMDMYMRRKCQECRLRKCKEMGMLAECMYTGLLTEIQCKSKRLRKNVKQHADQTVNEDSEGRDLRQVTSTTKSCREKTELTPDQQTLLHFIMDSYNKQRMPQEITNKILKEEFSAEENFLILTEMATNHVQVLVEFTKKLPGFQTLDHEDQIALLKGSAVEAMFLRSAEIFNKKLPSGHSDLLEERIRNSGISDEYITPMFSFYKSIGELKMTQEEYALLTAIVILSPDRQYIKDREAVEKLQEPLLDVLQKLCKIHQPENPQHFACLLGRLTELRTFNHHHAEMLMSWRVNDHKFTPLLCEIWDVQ
Nature of the series: Agonist activity at human FXR assessed as SRC1 peptide interaction with receptor ligand binding domain by FRET assay relative to GW-4064.

In series [2] the target is T2, Bile acid receptor (Homo sapiens, UniProt Q96RI1).
T2 sequence (Q96RI1 whole entry): T1 sequence (whole entry)
Put plainly: Agonist activity at human FXR transfected in african green monkey CV1 cells by luciferase reporter gene transient transfection assay. Type of series: functional, cell-based, CV-1. (In general: A reporter such as luciferase makes a cellular process visible.)

Series [3] in a line: Selectivity ratio of XC50 for LRH to EC50 for human FXR.
Series [4] deals with T2, Bile acid receptor. Put plainly: Agonist activity at human FXR assessed as SRC1 peptide interaction with receptor ligand binding domain by FRET assay.
Series [5] concerns the target T1, Bile acid receptor (Homo sapiens). Put plainly: Agonist activity at human FXR transfected in african green monkey CV1 cells by luciferase reporter gene transient transfection assay relative to GW-4064. The conditions noted are these: CV-1. Type of series: functional, cell-based.
A short description of series [6]: Selectivity ratio of XC50 for LXRalpha to EC50 for human FXR.
Series [7] can be described thus: Selectivity ratio of XC50 for LXRbeta to EC50 for human FXR.
Series [8] is described as follows: Selectivity ratio of XC50 for PXR to EC50 for human FXR.
Series [9] in a line: Selectivity ratio of XC50 for RORalpha to EC50 for human FXR.
Series [10] concerns the target T3, Nuclear receptor subfamily 5 group A member 2 (Homo sapiens, UniProt O00482). Nature of the series: Activity at LRH assessed as coactivator peptide interaction with receptor ligand binding domain by FRET assay.
Series [11] deals with T4, Oxysterols receptor LXR-alpha (Homo sapiens, UniProt Q13133).
T4 sequence (Q13133 whole entry): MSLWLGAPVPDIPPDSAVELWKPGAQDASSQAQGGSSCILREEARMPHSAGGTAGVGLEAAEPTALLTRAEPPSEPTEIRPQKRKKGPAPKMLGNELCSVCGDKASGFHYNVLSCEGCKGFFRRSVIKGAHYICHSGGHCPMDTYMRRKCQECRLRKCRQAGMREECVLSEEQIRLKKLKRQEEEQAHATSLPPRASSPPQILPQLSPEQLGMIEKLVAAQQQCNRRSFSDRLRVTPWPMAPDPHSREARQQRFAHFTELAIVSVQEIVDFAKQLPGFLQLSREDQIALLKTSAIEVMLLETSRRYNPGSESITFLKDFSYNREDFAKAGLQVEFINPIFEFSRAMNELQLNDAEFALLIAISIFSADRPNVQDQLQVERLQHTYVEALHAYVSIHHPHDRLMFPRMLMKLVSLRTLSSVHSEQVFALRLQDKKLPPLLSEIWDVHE
Nature of the series: Activity at LXRalpha assessed as coactivator peptide interaction with receptor ligand binding domain by FRET assay.

Series [12] has as its target T5, Oxysterols receptor LXR-beta (Homo sapiens, UniProt P55055).
T5 sequence (P55055 whole entry): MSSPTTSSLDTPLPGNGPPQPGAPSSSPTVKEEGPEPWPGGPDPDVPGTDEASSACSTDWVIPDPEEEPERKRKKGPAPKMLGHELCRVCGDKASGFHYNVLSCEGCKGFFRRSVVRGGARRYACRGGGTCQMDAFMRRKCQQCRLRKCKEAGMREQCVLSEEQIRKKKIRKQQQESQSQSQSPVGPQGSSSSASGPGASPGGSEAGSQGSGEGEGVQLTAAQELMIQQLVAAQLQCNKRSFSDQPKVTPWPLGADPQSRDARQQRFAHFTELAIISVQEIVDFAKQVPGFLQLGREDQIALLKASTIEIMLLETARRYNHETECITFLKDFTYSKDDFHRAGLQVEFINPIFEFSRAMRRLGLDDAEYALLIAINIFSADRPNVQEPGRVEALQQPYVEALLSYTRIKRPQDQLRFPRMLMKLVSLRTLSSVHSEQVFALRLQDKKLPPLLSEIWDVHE
Nature of the series: Activity at LXRbeta assessed as coactivator peptide interaction with receptor ligand binding domain by scintillation proximity assay.

For series [13], the target named is T6, PXR (Nuclear receptor subfamily 1 group I member 2) (Homo sapiens, UniProt O75469).
T6 sequence (O75469 whole entry): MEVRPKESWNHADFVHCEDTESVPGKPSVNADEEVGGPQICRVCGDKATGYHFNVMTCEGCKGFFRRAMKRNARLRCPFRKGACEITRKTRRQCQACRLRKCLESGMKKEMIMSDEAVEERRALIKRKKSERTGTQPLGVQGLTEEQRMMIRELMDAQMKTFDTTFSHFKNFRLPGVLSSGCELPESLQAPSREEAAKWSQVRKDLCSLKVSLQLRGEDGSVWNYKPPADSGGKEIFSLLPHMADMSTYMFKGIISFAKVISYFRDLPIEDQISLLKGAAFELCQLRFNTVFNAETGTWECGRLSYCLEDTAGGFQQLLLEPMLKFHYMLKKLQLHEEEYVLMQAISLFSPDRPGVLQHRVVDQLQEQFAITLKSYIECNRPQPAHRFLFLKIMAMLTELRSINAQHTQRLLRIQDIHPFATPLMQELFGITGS
Nature of the series: Activity at PXR assessed as coactivator peptide interaction with receptor ligand binding domain by scintillation proximity assay. For orientation: Scintillation proximity formats need no separation of bound from free tracer.

Series [14] deals with T7, Nuclear receptor ROR-alpha (Homo sapiens, UniProt P35398).
T7 sequence (P35398 whole entry): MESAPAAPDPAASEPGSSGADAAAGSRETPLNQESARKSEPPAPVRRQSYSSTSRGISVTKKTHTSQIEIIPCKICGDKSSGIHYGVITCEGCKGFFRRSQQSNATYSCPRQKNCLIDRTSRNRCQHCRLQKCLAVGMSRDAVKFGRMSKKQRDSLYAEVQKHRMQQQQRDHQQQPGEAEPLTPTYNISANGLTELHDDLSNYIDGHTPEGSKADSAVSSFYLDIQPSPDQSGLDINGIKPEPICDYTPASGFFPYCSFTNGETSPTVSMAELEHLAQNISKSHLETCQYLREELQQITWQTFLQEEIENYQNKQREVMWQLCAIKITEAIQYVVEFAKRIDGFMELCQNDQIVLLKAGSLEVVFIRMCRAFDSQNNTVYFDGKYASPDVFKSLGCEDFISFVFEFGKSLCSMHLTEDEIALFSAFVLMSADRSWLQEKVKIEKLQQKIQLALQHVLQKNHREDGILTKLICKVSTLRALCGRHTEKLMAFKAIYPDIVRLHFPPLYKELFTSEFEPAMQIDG
Put plainly: Activity at RORalpha assessed as coactivator peptide interaction with receptor ligand binding domain by FRET assay.

In series [15] the target is T3, Nuclear receptor subfamily 5 group A member 2. Put plainly: Activity at LRH assessed as coactivator peptide interaction with receptor ligand binding domain by FRET assay relative to standard control.
Series [16] has as its target T8, Oxysterols receptor LXR-alpha (Homo sapiens) (UniProt Q13133).
T8 sequence (whole entry): T4 sequence (Q13133 whole entry)
Put plainly: Activity at LXRalpha assessed as coactivator peptide interaction with receptor ligand binding domain by FRET assay relative to standard control.

In series [17] the target is T9, Oxysterols receptor LXR-beta (Homo sapiens) (UniProt P55055).
T9 sequence (whole entry): T5 sequence (P55055 whole entry)
Put plainly: Activity at LXRbeta assessed as coactivator peptide interaction with receptor ligand binding domain by scintillation proximity assay relative to standard control.

For series [18], the target named is T6, PXR (Nuclear receptor subfamily 1 group I member 2). Nature of the series: Activity at PXR assessed as coactivator peptide interaction with receptor ligand binding domain by scintillation proximity assay relative to standard control. The conditions noted are these: read-out: %max.
The nature of series [19]: Terminal half life in iv dosed rat. The format is ADME, organism-based. The settings on record: in vivo, read-out: beta t1/2.
Series [20] can be described thus: Total clearance in iv dosed rat. The settings on record: in vivo. The format is ADME, organism-based.
Series [21] can be described thus: Volume of distribution at steady state in iv dosed rat. The settings on record: in vivo, read-out: Vdss. Type of series: ADME, organism-based.
Series [22] can be described thus: Oral bioavailability in rat. The format is ADME, organism-based. The settings on record: in vivo.
Series [23] has as its target T2, Bile acid receptor. Put plainly: Agonist activity at human FXR assessed as SRC1 coactivator peptide recruitment by cell free FRET assay. Type of series: functional.

T3 sequence (O00482 whole entry, the tested form may be a part): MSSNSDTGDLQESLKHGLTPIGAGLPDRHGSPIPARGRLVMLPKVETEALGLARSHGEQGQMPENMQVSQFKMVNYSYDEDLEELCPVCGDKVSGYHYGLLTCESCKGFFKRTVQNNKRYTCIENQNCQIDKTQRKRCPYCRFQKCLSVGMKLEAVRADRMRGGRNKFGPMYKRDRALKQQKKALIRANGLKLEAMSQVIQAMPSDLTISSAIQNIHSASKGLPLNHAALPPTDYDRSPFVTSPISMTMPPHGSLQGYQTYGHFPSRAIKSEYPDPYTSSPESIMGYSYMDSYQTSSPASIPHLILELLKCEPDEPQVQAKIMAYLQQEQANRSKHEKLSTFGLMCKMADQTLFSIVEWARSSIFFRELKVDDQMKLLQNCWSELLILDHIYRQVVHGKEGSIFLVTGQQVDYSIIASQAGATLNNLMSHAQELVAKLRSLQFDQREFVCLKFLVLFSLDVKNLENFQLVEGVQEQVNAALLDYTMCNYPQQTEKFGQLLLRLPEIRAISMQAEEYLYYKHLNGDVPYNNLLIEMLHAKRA

As for `CC(C)c1onc(C[S+]([O-])c2c(Cl)cccc2Cl)c1COc1ccc(/C=C/c2cccc(C(=O)O)c2)c(Cl)c1` (configuration not stated), the %max in series [1] came to 110%; in series [5] it was 100%; in series [15], 46%; in series [16], 33%; in series [17], 101%. Further, the EC50 worked out at 72 nM in series [2] and 28 nM in [4]. Moreover, the Ratio in [3], in series [6], in [7], in series [8] and in series [9] was 100 throughout. Besides, the XC50 in [10] is 4.2 µM; in [11] it was 1400 nM; in series [12], 2500 nM; in series [13], 960 nM; in series [14] it was over 10 µM. Further, the Emax in series [18] was determined as 100%.

As to `CC(C)c1onc(-c2c(Cl)cncc2Cl)c1COc1ccc(/C=C/c2cccc(C(=O)O)c2)c(Cl)c1`, the results for the %max in [1] and in series [5] were 97% and 88%, respectively. Besides, the concentration giving a half-maximal response (EC50) in [2] was 52 nM; in series [4], 150 nM. Moreover, the half-life in series [19] was found to be 52 min. The compound also returned a clearance in series [20] of 48 mL/min/kg. In series [21], the Vd is 1.1 L/kg. The same compound displayed a bioavailability in [22] of 7.8%.

Take `CC(C)c1onc(COc2c(Cl)cc(F)cc2Cl)c1COc1ccc(/C=C/c2cccc(C(=O)O)c2)c(Cl)c1`: the results for the %max in series [1] and in series [5] were 112% and 56%, respectively. For the same compound, the concentration giving a half-maximal response (EC50) in series [23] was 540 nM; in [4] it was 87 nM. In addition, the half-life in [19] was 140 min. In series [20], this compound registered a clearance of 15 mL/min/kg. Besides, in series [21], the Vd is 1.4 L/kg. Moreover, the bioavailability in series [22] amounted to 1.9%.

Consider `CC(C)c1onc(CNc2c(Cl)cccc2Cl)c1COc1ccc(/C=C/c2cccc(C(=O)O)c2)c(Cl)c1`, for which the %max in series [1] is 104%; in series [5], 70%. Further, the half-maximal effective concentration (EC50) in [2] was found to be 140 nM; in [4], 72 nM. The half-life in series [19] worked out at 140 min. Moreover, the clearance in series [20] stood at 16 mL/min/kg. Further, the Vd in series [21] was 2.1 L/kg. Besides, in series [22], the bioavailability stood at 2.6%.
